This note sets out measurements from PubChem BioAssay (NCI).

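All cell lines were grown in 96-well plates and treated with compound for 48 hours. TGI: total growth inhibition.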

Some test systems named below: ACHN renal; CAKI-1 renal; HCT-116 colon; IGROV1 ovarian; LOX IMVI melanoma; RXF 393 renal; SF-268 CNS; SF-295 CNS; SW-620 colon; HS 578T breast.
Holding throughout (assay): NCI anticancer screen, dose series, 48 h

Turning to `O=c1[nH]cnc2c1nnn2CCCn1nnc2c(=O)[nH]cnc21`, the TGI in the assay on ACHN renal, with CAKI-1 renal, in the assay with HCT-116 colon, with IGROV1 ovarian, with LOX IMVI melanoma and in the assay with RXF 393 renal was more than 100 µM each time. The TGI in the assay on SF-268 CNS, in the assay with SF-295 CNS and with SW-620 colon was more than 100 µM throughout.

For `c1ccc2[nH]c(-c3nc4ccccc4o3)nc2c1`, the TGI with ACHN renal, with HCT-116 colon, with IGROV1 ovarian, in the assay with LOX IMVI melanoma, in the assay on SF-268 CNS and with SF-295 CNS was more than 100 µM each time.

On to `COC(=O)/C(=C/c1ccc(OC)cc1)C(C(=O)O)=C(C)C`, for which the TGI with CAKI-1 renal, with HCT-116 colon, in the assay with IGROV1 ovarian, in the assay with LOX IMVI melanoma, in the assay on RXF 393 renal and in the assay on SF-268 CNS was more than 100 µM throughout. Also, the TGI in the assay on SF-295 CNS and with SW-620 colon was more than 100 µM each time.

Take `COc1c2cc(C(C)(C)C)cc1CSCc1cc(C(C)(C)C)cc(c1OC)CCCCC2`: the TGI with ACHN renal, with HCT-116 colon, in the assay with HS 578T breast, with IGROV1 ovarian, in the assay with SF-268 CNS and in the assay with SF-295 CNS was more than 50 µM throughout. This compound displayed a TGI with SW-620 colon of more than 50 µM.

In the case of `O=S(=O)(O)c1cc(Cl)c(O)c2ncc(Cl)cc12`, the TGI with ACHN renal, in the assay with CAKI-1 renal, in the assay on HCT-116 colon, in the assay with IGROV1 ovarian, in the assay on LOX IMVI melanoma and in the assay on RXF 393 renal was more than 100 µM each time. For the same compound, the TGI in the assay with SF-295 CNS and with SW-620 colon was more than 100 µM each time.

On to `CC(C)(C)C1CCC2c3c([nH]c4ccccc34)C3C(=O)N(c4cc(Br)cc(Br)c4)C(=O)C3C2C1` (configuration not stated), for which the TGI in the assay on ACHN renal was more than 100 µM; with CAKI-1 renal, 66.6 µM; in the assay with HCT-116 colon it was 23.1 µM; in the assay on HS 578T breast it was 30.8 µM; in the assay with IGROV1 ovarian, more than 100 µM; in the assay with LOX IMVI melanoma, more than 100 µM. Further, in the assay on SW-620 colon, the TGI is more than 100 µM.

As to `CCOC(=O)C1NCCc2c1[nH]c1ccccc21` (configuration not stated), the TGI with CAKI-1 renal, in the assay with IGROV1 ovarian, in the assay on RXF 393 renal, with SF-268 CNS, with SF-295 CNS and in the assay on SW-620 colon was more than 10 µM throughout.

Consider `Oc1c(Cl)c2nccnc2c2ccccc12`, for which the TGI with ACHN renal, in the assay on HCT-116 colon, in the assay on IGROV1 ovarian, in the assay on RXF 393 renal, in the assay with SF-268 CNS and in the assay on SF-295 CNS was more than 100 µM each time. Moreover, the TGI with SW-620 colon is more than 100 µM.

Consider `C=CCN1C(=O)CS/C1=N\NC(=O)c1c(C)nc2sccn12`, for which the TGI in the assay with ACHN renal, with CAKI-1 renal, in the assay with HCT-116 colon, in the assay on IGROV1 ovarian, with LOX IMVI melanoma and in the assay on RXF 393 renal was more than 100 µM throughout. In addition, the TGI in the assay on SF-268 CNS, in the assay on SF-295 CNS and with SW-620 colon was more than 100 µM each time.

For `CCOC(=O)c1ccc(NC2Oc3cc4c(cc3C(c3cc(OC)c(OC)c(OC)c3)C2C)OCO4)cc1` (configuration not stated), the TGI with ACHN renal was more than 63.4 µM; in the assay on CAKI-1 renal it was 0.786 µM; in the assay with HCT-116 colon it was more than 51.7 µM; in the assay on IGROV1 ovarian, more than 51 µM; in the assay on LOX IMVI melanoma, 32.9 µM; in the assay on RXF 393 renal, 93.9 µM. Also, the TGI with SF-268 CNS is more than 40.8 µM; with SF-295 CNS, 2.9 µM; with SW-620 colon, more than 100 µM.

Take `C=C/C(C)=C/[C@H](C)C(=O)C[C@H](O)CC1CC(=O)NC(=O)C1`: the TGI was more than 100 µM with CAKI-1 renal; more than 100 µM in the assay with HCT-116 colon; more than 86.7 µM in the assay with IGROV1 ovarian; more than 100 µM with LOX IMVI melanoma; more than 100 µM in the assay on RXF 393 renal; more than 100 µM in the assay with SF-268 CNS. Besides, the TGI in the assay on SF-295 CNS and with SW-620 colon was more than 100 µM each time.

Regarding `O=C1Nc2ccccc2C(=O)OC(Cc2ccccc2)=Nc2ccccc21`, the TGI in the assay with ACHN renal, in the assay with CAKI-1 renal, with HCT-116 colon, with IGROV1 ovarian, in the assay with LOX IMVI melanoma and with RXF 393 renal was more than 100 µM throughout. Besides, the TGI in the assay on SF-268 CNS, in the assay on SF-295 CNS and with SW-620 colon was more than 100 µM each time.

Consider `O=C(C=P(c1ccccc1)(c1ccccc1)c1ccccc1)C12CC3CC(CC(C3)C1)C2`, for which the TGI in the assay with ACHN renal came to 29.7 µM; in the assay on CAKI-1 renal it was 33.6 µM; in the assay on HCT-116 colon, 29.4 µM; in the assay with HS 578T breast it was 37.6 µM; in the assay with IGROV1 ovarian, 30.8 µM; with LOX IMVI melanoma, 41.5 µM. The TGI in the assay on SF-268 CNS turned out to be 41.6 µM; in the assay with SW-620 colon it was 34.9 µM.

As to `CC(C)(C)C1CC[C@H]2c3c([nH]c4ccc(Br)cc34)[C@H]3C(=O)N(c4ccccc4)C(=O)[C@H]3[C@H]2C1` (some centres not stated), the TGI with ACHN renal, with CAKI-1 renal, in the assay on HCT-116 colon, with IGROV1 ovarian, in the assay with LOX IMVI melanoma and in the assay with RXF 393 renal was more than 100 µM in each case. Besides, the TGI is 95.1 µM in the assay on SF-268 CNS, 43.1 µM in the assay on SF-295 CNS and more than 100 µM in the assay on SW-620 colon.

Consider `CN(C)[C@@H]1C(=O)C(C(N)=O)=C(O)[C@@]2(O)C(=O)C3=C(O)c4c(O)cccc4C[C@H]3C[C@@H]12`, for which the TGI in the assay with ACHN renal stood at 14.3 µM; in the assay with CAKI-1 renal, 4.3 µM; in the assay on HCT-116 colon, 3.28 µM; with IGROV1 ovarian it was 4.8 µM; with RXF 393 renal, 3.11 µM; in the assay with SF-268 CNS, 3.23 µM. In addition, the results for the TGI in the assay with SF-295 CNS and with SW-620 colon were 3.22 µM and 9.84 µM, respectively.

Turning to `OCC(O)COc1ccc(Br)cc1` (configuration not stated), the TGI in the assay with ACHN renal, in the assay with CAKI-1 renal, with HCT-116 colon, in the assay with IGROV1 ovarian, with LOX IMVI melanoma and in the assay on RXF 393 renal was more than 100 µM each time. The TGI with SF-268 CNS, with SF-295 CNS and in the assay with SW-620 colon was more than 100 µM in each case.
